Positions of bridges follow the written chain, without caps; N, C: chain ends. Residues, ends and D or L forms follow the SMILES beside them.
Key:
[1] = molecular target: T1, neutral endopeptidase (NEP) (Homo sapiens, UniProt P08473); assay: Sensitivity towards proteolytic degradation by NEP (reporter cell activity after incubation); type: in vitro ADME; conditions: 4 hours incubation with 0.6 μg/ml NEP at 37° C., then reporter cell activity
T1 construct: purchased R&D Systems 1182-ZNC

[2] = molecular target: T2, insulin degrading enzyme (IDE) (Rattus norvegicus, UniProt P35559); assay: Sensitivity towards proteolytic degradation by IDE (reporter cell activity after incubation); conditions: 4 hours incubation with 0.6 μg/ml IDE at 37° C., then reporter cell activity
T2 sequence (P35559 1-1019): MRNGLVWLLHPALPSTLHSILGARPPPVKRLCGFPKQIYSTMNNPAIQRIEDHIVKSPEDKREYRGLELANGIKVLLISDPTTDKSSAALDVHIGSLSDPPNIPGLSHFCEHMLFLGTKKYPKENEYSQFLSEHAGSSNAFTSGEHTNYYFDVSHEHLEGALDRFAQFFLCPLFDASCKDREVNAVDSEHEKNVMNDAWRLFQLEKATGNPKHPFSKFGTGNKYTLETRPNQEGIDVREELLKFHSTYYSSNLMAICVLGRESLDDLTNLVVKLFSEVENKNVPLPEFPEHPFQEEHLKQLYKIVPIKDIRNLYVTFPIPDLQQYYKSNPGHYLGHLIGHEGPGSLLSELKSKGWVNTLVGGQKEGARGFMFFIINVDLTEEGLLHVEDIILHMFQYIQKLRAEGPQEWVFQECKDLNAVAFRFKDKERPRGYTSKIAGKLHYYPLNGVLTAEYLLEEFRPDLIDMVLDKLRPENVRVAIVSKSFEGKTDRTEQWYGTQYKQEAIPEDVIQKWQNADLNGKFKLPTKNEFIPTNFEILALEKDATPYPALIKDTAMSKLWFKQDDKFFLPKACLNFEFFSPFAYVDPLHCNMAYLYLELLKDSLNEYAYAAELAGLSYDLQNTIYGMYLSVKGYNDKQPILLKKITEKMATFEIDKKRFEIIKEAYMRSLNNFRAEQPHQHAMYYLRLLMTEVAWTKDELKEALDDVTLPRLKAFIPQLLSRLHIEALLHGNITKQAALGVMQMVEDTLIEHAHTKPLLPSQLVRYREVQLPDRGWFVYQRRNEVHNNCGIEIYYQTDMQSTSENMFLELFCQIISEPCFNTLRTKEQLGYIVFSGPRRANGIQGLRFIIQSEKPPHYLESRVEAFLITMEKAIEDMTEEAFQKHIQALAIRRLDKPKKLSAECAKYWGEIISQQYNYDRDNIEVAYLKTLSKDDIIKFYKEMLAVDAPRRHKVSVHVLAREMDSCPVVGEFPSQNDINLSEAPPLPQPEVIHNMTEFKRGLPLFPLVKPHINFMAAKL

[3] = system: PE-contracted aortic rings; assay: Vasorelaxation of isolated phenylephrine-contracted rat aortic rings
Experimental: All experiments were conducted in accordance with institutional guidelines and approved by the local committee on animal experiments. Male Sprague-Dawley rats (weighing 250-300 g) were anesthetized with pentobarbital sodium (40 mg/kg i.p.), killed by decapitation, and exsanguinated. The thoracic aorta was excised and placed in ice-cold Krebs buffer of the following composition: 130 mM NaCl, 14.9 mM NaHCO3, 5.5 mM dextrose, 4.7 mM KCl, 1.18 mM KH2PO4, 1.17 mM MgSO47H2O, and 1.6 mM CaCl22H2O. The vessel was pinned in a Sylgard Petri dish filled with chilled Krebs' solution, cleaned of fat and connective tissue, and cut into ring segments of approximately 3 to 4 mm in length. […] Changes in isometric force were recorded using a PowerLab data acquisition system (software Lab Chart 7.0)
After the equilibration period, aortic rings were challenged with 80 mM KCl to check tissue viability. Next, the endothelial integrity of the preparations was determined by verifying the responsiveness to acetylcholine (ACh, 1 μM) in vessels pre-contracted with Phenylephrine (PE, 1 μM). After wash-out and a period of equilibration, Phenylephrine (PE, 1 μM) was used to induce contraction, thereafter natriuretic peptides and natriuretic peptide engrafted IgGs were evaluated for vasorelaxation.

[4] = system: spontaneously hypertensive rats; assay: Radiotelemetric blood pressure in conscious spontaneously hypertensive rats; type: in vivo, rat; conditions: 500 μg dose intraperitoneally
Experimental: Blood pressure and heart rate were monitored in freely moving conscious animals by radiotelemetry (Data Sciences International). Female spontaneously hypertensive rats (SHR/N Crl BR, Charles River) with a body weight of 210-300 g were used for these studies. All animals were housed in individual cages at 22-24° C. ambient temperature and maintained on a 12-hour light/dark cycle with free access to standard laboratory rat chow and water ad libitum. Telemeter (HD-10, DSI) implantation was performed a minimum of 14 days before animals were used for blood pressure measurements. Surgery was performed under aseptic conditions. After shaving the abdominal wall, a midline abdominal incision was made, and the fluid-filled sensor catheter was inserted upstream into the exposed descending aorta between the iliac bifurcation and the renal arteries. According to the DSI guidelines the tip of the telemetric catheter was located caudal to the renal arteries and secured by tissue adhesive. The transmitter body was affixed to the inner peritoneal wall before closure of the abdomen. […] Data are expressed as % of basal values±SEM of at least 4 animals per group. The basal value for each animal was calculated as the average of the values measured in two hours prior to substance application (7:00-9:00 AM). Data are then expressed as averages every half hour, starting 15 minutes post application. […]

T1 sequence (P08473 52-750 limits assumed): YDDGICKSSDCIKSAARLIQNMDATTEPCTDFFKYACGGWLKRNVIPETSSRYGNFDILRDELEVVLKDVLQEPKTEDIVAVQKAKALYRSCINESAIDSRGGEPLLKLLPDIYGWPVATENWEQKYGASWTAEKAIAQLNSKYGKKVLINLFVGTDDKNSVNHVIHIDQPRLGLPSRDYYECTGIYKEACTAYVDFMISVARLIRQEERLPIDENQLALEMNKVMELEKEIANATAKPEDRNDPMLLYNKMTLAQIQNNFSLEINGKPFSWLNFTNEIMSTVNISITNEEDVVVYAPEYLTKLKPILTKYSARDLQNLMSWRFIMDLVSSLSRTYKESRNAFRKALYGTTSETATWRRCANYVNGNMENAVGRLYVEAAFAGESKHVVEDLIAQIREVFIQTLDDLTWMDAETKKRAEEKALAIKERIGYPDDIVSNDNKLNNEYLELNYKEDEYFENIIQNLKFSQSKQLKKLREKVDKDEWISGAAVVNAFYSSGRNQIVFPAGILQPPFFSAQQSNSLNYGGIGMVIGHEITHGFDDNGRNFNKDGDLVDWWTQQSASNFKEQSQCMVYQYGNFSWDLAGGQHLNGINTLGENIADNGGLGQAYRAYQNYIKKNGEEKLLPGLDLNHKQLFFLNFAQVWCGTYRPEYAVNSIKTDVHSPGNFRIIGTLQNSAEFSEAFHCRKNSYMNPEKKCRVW

Row | Molecule | proteolytic degradation by NEP [1] | proteolytic degradation by IDE [2] | vasodilation in PE-contracted aortic rings [3] | Potency (log EC50 values) ([3]; vasodilation, endothelium-intact rat aortic rings contracted by phenylephrine (1 μM)) | drop in mean arterial blood pressure (MAP) [4] | duration of effect [4]
1 | CC[C@H](C)[C@@H]1NC(=O)[C@H](CCCNC(=N)N)NC(=O)[C@H](CC(=O)O)NC(=O)[C@H]([C@@H](C)CC)NC(=O)[C@H](CCCCN)NC(=O)[C@H](CCC(N)=O)NC(=O)CNC(=O)[C@H](Cc2ccccc2)NC(=O)[C@@H](NC(=O)[C@H](CO)NC(=O)[C@H](CO)NC(=O)[C@H](CO)NC(=O)[C@H](Cc2c[nH]cn2)NC(=O)[C@H](C)NC(=O)[C@H](CCSC)NC(=O)[C@H](CCCCN)NC(=O)[C@H](CO)NC(=O)[C@@H](N)CC(N)=O)CSSC[C@@H](C(=O)N[C@@H](CC(=O)O)C(=O)NCC(=O)N[C@@H](CC(C)C)C(=O)N[C@@H](CCCNC(=N)N)C(=O)N[C@@H](CC(C)C)C(=O)N[C@@H](Cc2ccccc2)C(=O)O)NC(=O)CNC(=O)[C@H](CC(C)C)NC(=O)[C@H](CCCNC(=N)N)NC(=O)[C@H](CO)NC(=O)[C@H](C(C)C)NC(=O)[C@H](C)NC(=O)CNC1=O [BNP, Brain Natriuretic Peptide, reference compound] (H-NSKMAHSSSCFGQKIDRIGAVSRLGCDGLRLF-OH; disulfide 10-26; N-terminus and C-terminus assumed) | high sensitivity | high sensitivity | – | – | – | –
2 | ANP peptide: Rat ANP peptide (ADH-GM-10057T, Santai Labs) used as a reference (SLRRSSCFGGRIDRIGAQSGLGCNSFRY) [reference compound] | – | – | dose-dependent vasodilation | −7.4 | approximately 25% | 6 to 8 h

Reference: US12331094B2 (Bayer Aktiengesellschaft, priority 2018, dated 2025)
